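Following 48 hours of exposure in 96-well plates, responses at five concentrations were used to interpolate endpoints linearly. The concentration for 50% growth inhibition is given as GI50.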 Calls of active or inactive are those of the source. Rule as the data show it: active = GI50 up to about 1.1 µM and inactive = higher.
Key:
Test in all cases: growth of human tumour cells (NCI), 48 h
786-0 = system: 786-0
A549 = system: A549
COLO 205 = system: COLO 205
EKVX = system: EKVX
HL-60 = system: HL-60
IGROV-1 = system: IGROV-1
M14 = system: M14
Malme-3M = system: Malme-3M
NCI-H226 = system: NCI-H226
NCI-H23 = system: NCI-H23
NCI-H460 = system: NCI-H460
OVCAR-3 = system: OVCAR-3
SK-OV-3 = system: SK-OV-3
UACC-257 = system: UACC-257
HOP-62 = system: HOP-62
SR = system: SR

SMILES	GI50 (786-0)	GI50 (A549)	GI50 (COLO 205)	GI50 (EKVX)	GI50 (HL-60)	GI50 (IGROV-1)	GI50 (M14)	GI50 (Malme-3M)	GI50 (NCI-H226)	GI50 (NCI-H23)	GI50 (NCI-H460)	GI50 (OVCAR-3)	GI50 (SK-OV-3)	GI50 (UACC-257)	GI50 (HOP-62)	GI50 (SR)
CC1CC(c2cccc3c2OCO3)=Nc2ccccc2S1 (stereo unspecified)	> 100 µM (inactive)	> 100 µM (inactive)	> 100 µM (inactive)	> 100 µM (inactive)	> 100 µM (inactive)	> 100 µM (inactive)	> 100 µM (inactive)	> 100 µM (inactive)	> 100 µM (inactive)	> 100 µM (inactive)	> 100 µM (inactive)	> 100 µM (inactive)	> 100 µM (inactive)	> 100 µM (inactive)		
CCCCN(CCCC)CC(C(C)=O)C(c1ccccc1)c1c(O)c2ccccc2oc1=O (stereo unspecified)	> 100 µM (inactive)	> 100 µM (inactive)	> 100 µM (inactive)	> 100 µM (inactive)	> 100 µM (inactive)	> 100 µM (inactive)	> 100 µM (inactive)	> 100 µM (inactive)	> 100 µM (inactive)	> 100 µM (inactive)	> 100 µM (inactive)	> 100 µM (inactive)	> 100 µM (inactive)	> 100 µM (inactive)	> 100 µM (inactive)	> 100 µM (inactive)
O=C(CC(CC(=O)Oc1c(Br)cc(Br)cc1C(=O)O)C(=O)Oc1c(Br)cc(Br)cc1C(=O)O)Oc1c(Br)cc(Br)cc1C(=O)O	> 100 µM (inactive)	47.5 µM (inactive)	> 100 µM (inactive)	44.9 µM (inactive)	43.7 µM (inactive)	29 µM (inactive)	91.6 µM (inactive)	70.1 µM (inactive)	20.7 µM (inactive)	36.4 µM (inactive)	56.8 µM (inactive)	47.8 µM (inactive)	54.7 µM (inactive)	83.6 µM (inactive)	46.5 µM (inactive)	
CN(C)c1ccc(-c2nc(N)nc3c2CCCC3)cc1	82 µM (inactive)	52.8 µM (inactive)	42.5 µM (inactive)	28.4 µM (inactive)	29.3 µM (inactive)	64.4 µM (inactive)	68.1 µM (inactive)	46.1 µM (inactive)	51.3 µM (inactive)	64.7 µM (inactive)	65.2 µM (inactive)	23.4 µM (inactive)	> 100 µM (inactive)		99.1 µM (inactive)	
CC(=O)C1C(c2ccc(N(C)C)cc2)c2cc3c(cc2OC1(C)O)OCO3 (stereo unspecified)	36.7 µM (inactive)	37.6 µM (inactive)	41.1 µM (inactive)	77.6 µM (inactive)	24.3 µM (inactive)	77.8 µM (inactive)	43.8 µM (inactive)	53 µM (inactive)		59 µM (inactive)	34.4 µM (inactive)	35 µM (inactive)	55.3 µM (inactive)	51.8 µM (inactive)	> 100 µM (inactive)	
CC(=O)OCC1OC(n2cc(F)c(=O)[nH]c2=O)C(NC(=O)N(CCCl)N=O)C(OC(C)=O)C1OC(C)=O (stereo unspecified)	54.2 µM (inactive)	89.7 µM (inactive)	> 100 µM (inactive)		51.5 µM (inactive)	> 100 µM (inactive)	> 100 µM (inactive)	> 100 µM (inactive)		> 100 µM (inactive)	18.7 µM (inactive)	> 100 µM (inactive)	> 100 µM (inactive)	> 100 µM (inactive)	> 100 µM (inactive)	97.9 µM (inactive)
O=C(N/C(=C\c1ccccc1O)c1nc2ccccc2[nH]1)c1ccccc1	48.1 µM (inactive)	> 100 µM (inactive)	> 100 µM (inactive)	37.8 µM (inactive)		> 100 µM (inactive)	> 100 µM (inactive)	> 100 µM (inactive)		40.6 µM (inactive)	> 100 µM (inactive)	> 100 µM (inactive)	36.1 µM (inactive)	> 100 µM (inactive)	79.6 µM (inactive)	
CS/C(=N/C#N)NCCc1c[nH]c2ccccc12	45.6 µM (inactive)	> 100 µM (inactive)	> 100 µM (inactive)	18 µM (inactive)	55.2 µM (inactive)	> 100 µM (inactive)	> 100 µM (inactive)		> 100 µM (inactive)	> 100 µM (inactive)	> 100 µM (inactive)	> 100 µM (inactive)	> 100 µM (inactive)	> 100 µM (inactive)	> 100 µM (inactive)	60.3 µM (inactive)
CN(C)CC/C(=N\Nc1ccc(Cl)cc1)c1ccccc1	1.26 µM (inactive)	1.47 µM (inactive)	1.75 µM (inactive)	1.36 µM (inactive)	0.369 µM (active)	1.28 µM (inactive)	1.67 µM (inactive)	1.98 µM (inactive)		1.95 µM (inactive)	1.1 µM (active)	1.51 µM (inactive)	2.22 µM (inactive)	1.64 µM (inactive)	1.68 µM (inactive)	0.415 µM (active)
CC(=O)Nc1cc2c(s1)CCC1CC(=O)NN=C21 (stereo unspecified)	> 100 µM (inactive)	> 100 µM (inactive)	> 100 µM (inactive)	> 100 µM (inactive)	> 100 µM (inactive)	> 100 µM (inactive)	> 100 µM (inactive)	> 100 µM (inactive)	> 100 µM (inactive)	> 100 µM (inactive)	> 100 µM (inactive)	> 100 µM (inactive)			> 100 µM (inactive)	> 100 µM (inactive)
Nc1ncnc2c1nnn2C1C=C(CO)C(O)C1O (stereo unspecified)	53.2 µM (inactive)	58.1 µM (inactive)	> 36 µM (inactive)	> 100 µM (inactive)	12.1 µM (inactive)	> 100 µM (inactive)	> 52.2 µM (inactive)	> 100 µM (inactive)	> 100 µM (inactive)	> 78.9 µM (inactive)	40.8 µM (inactive)	> 100 µM (inactive)	> 100 µM (inactive)	> 100 µM (inactive)	> 92 µM (inactive)	
N#CC(C#N)C(c1ccccc1)c1ccccc1	> 100 µM (inactive)	> 100 µM (inactive)	> 100 µM (inactive)		> 100 µM (inactive)	> 100 µM (inactive)	> 100 µM (inactive)	> 100 µM (inactive)	> 100 µM (inactive)		> 100 µM (inactive)	> 100 µM (inactive)	> 100 µM (inactive)	> 100 µM (inactive)	> 100 µM (inactive)	> 100 µM (inactive)
O=C1CCC(=O)c2sccc2N1	> 100 µM (inactive)	> 100 µM (inactive)	> 100 µM (inactive)	> 100 µM (inactive)	> 100 µM (inactive)	> 100 µM (inactive)	> 100 µM (inactive)	> 100 µM (inactive)	> 100 µM (inactive)	> 100 µM (inactive)	> 100 µM (inactive)	> 100 µM (inactive)	> 100 µM (inactive)	> 100 µM (inactive)	> 100 µM (inactive)	
CCOc1ccc(NC(=O)C2=C(C)NC(C)=C(C(=O)Nc3ccc(OCC)cc3)C2c2ccccc2)cc1	88.7 µM (inactive)	> 100 µM (inactive)	> 100 µM (inactive)	> 100 µM (inactive)	29.9 µM (inactive)	> 100 µM (inactive)	> 100 µM (inactive)	> 100 µM (inactive)	> 100 µM (inactive)	> 100 µM (inactive)	> 100 µM (inactive)	> 100 µM (inactive)	> 100 µM (inactive)	> 100 µM (inactive)	> 100 µM (inactive)	
CC1(C)COC(c2cccc3c2C(=O)c2cccc(Cl)c2-3)=N1	39.4 µM (inactive)	58.1 µM (inactive)	42.9 µM (inactive)	38.3 µM (inactive)	28.4 µM (inactive)	> 100 µM (inactive)	47.9 µM (inactive)	84.7 µM (inactive)		52.5 µM (inactive)	50.4 µM (inactive)	78.2 µM (inactive)	48.8 µM (inactive)	33.7 µM (inactive)		
COc1cc(/C=C(\C#N)C(=O)c2ccccc2)ccc1OCc1ccccc1	> 100 µM (inactive)	> 100 µM (inactive)	> 100 µM (inactive)	> 100 µM (inactive)	> 100 µM (inactive)	> 100 µM (inactive)	> 100 µM (inactive)		> 100 µM (inactive)	> 100 µM (inactive)		> 100 µM (inactive)	> 100 µM (inactive)	> 100 µM (inactive)	> 100 µM (inactive)	> 100 µM (inactive)
N#CCc1ccc(C(C#N)/C(CCCC(=O)Nc2cccc([N+](=O)[O-])c2)=N/NC(N)=S)cc1 (stereo unspecified)	> 100 µM (inactive)	> 100 µM (inactive)	> 100 µM (inactive)	36.6 µM (inactive)	> 100 µM (inactive)	> 100 µM (inactive)	> 100 µM (inactive)	> 100 µM (inactive)	> 100 µM (inactive)	> 100 µM (inactive)	> 100 µM (inactive)	75.3 µM (inactive)	> 100 µM (inactive)	> 100 µM (inactive)	> 100 µM (inactive)	> 100 µM (inactive)
O=C1C(Br)=C[C@H]2C3C=CC(Br)(C3=O)[C@@H]12 (stereo partly specified)	14.7 µM (inactive)	15.3 µM (inactive)	9.75 µM (inactive)	15.4 µM (inactive)	2.43 µM (inactive)	9.62 µM (inactive)	9.33 µM (inactive)	13.2 µM (inactive)	19 µM (inactive)	12.5 µM (inactive)		13.6 µM (inactive)	7.69 µM (inactive)	12.2 µM (inactive)	35.6 µM (inactive)	
CCCn1c(SCC)c2cc3cc4ccccc4cc3cc2c1-c1nc(F)nc(F)n1	> 100 µM (inactive)	> 100 µM (inactive)	> 100 µM (inactive)	> 100 µM (inactive)	> 100 µM (inactive)	> 100 µM (inactive)	> 100 µM (inactive)	> 100 µM (inactive)	> 100 µM (inactive)	> 100 µM (inactive)	> 100 µM (inactive)	> 100 µM (inactive)	> 100 µM (inactive)	> 100 µM (inactive)	> 100 µM (inactive)	> 100 µM (inactive)

Reference: ChEMBL document CHEMBL1201862, “PubChem BioAssay data set” (2004)
